Assay results from publication PMC12811658, “Design, Synthesis, and Structural Evolution of Pseudo‐Natural Product IDO1 Inhibitors and Degraders” (Angewandte Chemie (International Ed. in English), 2025).

Assays:
[1] = system: global proteome of SKOV-3 cells; test: TMT-based global proteome profiling; format: cell-based; details: 10 µM vs DMSO, 4 h, LC-MS/MS
Protocol: Figure 3 Comparison of IDO1 degradation efficiency for selected compounds. a) Detection of IDO1 levels using immunostaining. IFN‐γ stimulated HeLa cells were treated with the compounds for 24 h. IDO1 protein abundance was detected with IDO1 antibody. Data are mean values ± SD, n = 3. b) IDO1 protein levels in BxPC3 cells upon compounds treatment were detected using immunoblotting. BxPC3 cells were treated with IFN‐γ for 24 h prior to washout, followed by addition of compounds. Representative blot and quantified band intensities are shown (mean values ± SD, n = 3). See Figure S11a S12a for the uncropped blots. c) Key functions of hit compounds that influence degradation efficiency. d) Heatmap for IDO degradation efficiency. IDO1 levels were monitored as described in (c). See Table S1 for mean values and Figure S11b for the uncropped blots. e)–g) Dose dependent degradation of IDO1 protein in BxPC3 cells treated with iDeg‐7–9 and detected as described in (c). Representative data of n = 3 except for iDeg‐9 (n = 4). See Figure S12 S13 for the uncropped blots. h) Quantification of IDO1 protein levels from e‐g (mean values ± SD, n = 3 except for iDeg‐9 (n = 4). i) Tabulated inhibition and degradation ability of iDeg‐6–9. ND: not detected. j) Volcano plot of iDeg‐6‐induced changes on the global proteome. SKOV‐3 cells were treated with 10 µM iDeg‐6 or DMSO for 4 h followed by protein extraction, tryptic digest and LC‐MS/MS analysis (n = 4). Plot generated using UMSAP (T 0 = 0.5, S 0 = 0.5).
Cells were collected after trypsinization. The collected cell suspension was centrifugated and washed twice by cold PBS before lysate preparation by means of four freeze-thaw cycles in PBS containing 0.4% NP-40 alternative with protease (Roche, #5892970001) and phosphatase inhibitors (Roche, #4906845001). Protein concentration was determined by DC protein assay (BIO-RAD, #5000116) and 200 μg of protein lysates were subjected to the sample preparation and MS analysis. Protein lysates were dissolved in equal volume of 100 mM triethylammonium bicarbonate (TEAB) buffer supplemented with 7.5 µL of a 200 mM Tris(2-carboxyethyl) phosphine (TCEP) followed by an incubation step at 55 °C for 1 h. Afterwards, 7.5 µL of 375 mM iodoacetamide were added and samples were incubated for another 30 min at room temperature in the dark prior to acetone-based protein precipitation (pre-incubation at -20 °C overnight). On the next day, samples were centrifuged at 8,000 x g and 4 °C, the supernatant was aspired and protein pellets were dried at room temperature. Pellets were dissolved in digestion buffer (trypsin: protein ratio-1:50 (w/w)), in which trypsin was pre-dissolved in 10 mM HCl, and then diluted in 100 mM TEAB buffer to a final concentration of 0.4 µg/µL trypsin in 10 mM HCl, then the sample was incubated with shaking overnight at 37 °C. On the next day, samples were labelled with TMT10plex reagents (Thermo Scientific, WL320956) following the instruction of the TMT10plex Mass Tag Labeling Kit. Namely, 20 µL of the TMTpro Label reagent was added to each 100 µL sample (100 µg protein) followed by incubation for 2 h at room temperature while shaking. Afterwards, 5 µL of 5% hydroxylamine was added into each sample, and the samples were incubated for 15 min to quench the reaction. Equal amounts of each sample were combined in a new tube. The pooled samples were dried in a SpeedVac at 30 °C until the liquid evaporated completely.
All solvents used during MS measurements were LC-MS grade. The TMTpro labeled peptides were cleaned up and fractionated using a reversed-phase fractionation spin column (Thermo Fisher Scientific ^#84868) following the instructions of the Pierce™ High pH Reversed-Phase Peptide Fractionation kit. Briefly, the combined labeled samples (40 µg) were fully dissolved in 300 μL of 0.1% TFA and loaded onto an activated spin column, followed by centrifugation at 3000 g for 2 minutes. […]

[2] = system: Kyn levels in BxPC3 cells (kynurenine generated by IDO1); test: Cellular Kyn assay (automated Kyn screening assay); format: cell-based; details: Homo sapiens, BXPC-3, 48 h, IFN-γ, L-Trp and compounds 48 h, mean ± SD, read-out: IC50 (Kyn assay), reduction of kynurenine levels
recombinant human IDO1 = target: T1, recombinant human IDO1 (Homo sapiens, UniProt P14902); test: IDO1 enzymatic assay in vitro; format: biochemical; details: at 14 µM; pre-incubation 37 °C 45 min; mean ± SD
T1 construct: The GST-tag of IDO1 was removed to obtain untagged full-length IDO1l using PreScission protease; GST (N, cleaved yes); made in house; own inference
T1 sequence (P14902 whole entry): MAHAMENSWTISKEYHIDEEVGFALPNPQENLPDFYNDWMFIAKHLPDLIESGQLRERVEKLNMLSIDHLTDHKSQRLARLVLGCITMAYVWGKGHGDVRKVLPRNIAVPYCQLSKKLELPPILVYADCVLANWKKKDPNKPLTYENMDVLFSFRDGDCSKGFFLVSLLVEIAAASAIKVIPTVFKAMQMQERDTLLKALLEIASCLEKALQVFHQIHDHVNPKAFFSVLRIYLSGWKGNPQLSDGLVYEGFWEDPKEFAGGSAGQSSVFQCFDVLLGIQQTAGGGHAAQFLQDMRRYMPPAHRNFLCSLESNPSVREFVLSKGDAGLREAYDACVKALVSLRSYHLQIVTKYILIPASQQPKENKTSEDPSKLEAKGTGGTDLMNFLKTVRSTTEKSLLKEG

Question: `C#Cc1ccc(NC(=O)OC[C@]23CN(S(=O)(=O)c4ccc(C(C)(C)C)cc4C)C[C@H]2C[C@H]2C[C@@H]3C2(C)C)cc1` [98 (iDeg-6), ((3aS,4R,6R,7aS)-2-((4-(tert-butyl)-2-methylphenyl)sulfonyl)-5,5-dimethyloctahydro-3aH-4,6-methanoisoindol-3a-yl)methyl (4-ethynylphenyl)carbamate] was tested. Which “Difference in protein level: ATP6V0D1” value [1] did it give?
Answer: Its value is 0.47.

Question: And the “Difference in protein level: COX6C” value [1]?
Answer: Its value is 0.79.

Question: And the “Difference in protein level: COX7A2” value [1]?
Answer: Its value is 0.74.

Question: And the “Difference in protein level: COX7C” value [1]?
Answer: Its value is 0.6.

Question: And the “Difference in protein level: ERLIN2” value [1]?
Answer: Its value is 0.69.

Question: And the “Difference in protein level: IDO1” value [1]?
Answer: The value was -0.53.

Question: What about the “Difference in protein level: MT-CO2” value [1] of the same compound?
Answer: The value was 0.44.

Question: And the “Difference in protein level: MT-ND2” value [1]?
Answer: The value was 0.52.

Question: What about the “Difference in protein level: NDUFA3” value [1] of the same compound?
Answer: The value was 0.44.

Question: What about the “Difference in protein level: NDUFA9” value [1] of the same compound?
Answer: Its value is 0.58.

Question: And the “Difference in protein level: NDUFB3” value [1]?
Answer: Its value is 0.53.

Question: What about the “Difference in protein level: NDUFB11” value [1] of the same compound?
Answer: The value was 0.51.

Question: And the “Difference in protein level: NDUFC2” value [1]?
Answer: Its value is 0.57.

Question: And the “Difference in protein level: NDUFS5” value [1]?
Answer: Its value is 0.51.

Question: And the “Difference in protein level: PHB” value [1]?
Answer: Its value is 0.45.

Question: And the “Difference in protein level: PHB2” value [1]?
Answer: Its value is 0.54.

Question: What about the “Difference in protein level: TCIRG1” value [1] of the same compound?
Answer: The value was 0.37.

Question: And the “Difference in protein level: TOMM5” value [1]?
Answer: The value was 0.56.

Question: And the “Difference in protein level: TOMM22” value [1]?
Answer: The value was 0.6.

Question: What about the “Difference in protein level: TOMM40” value [1] of the same compound?
Answer: Its value is 0.45.

Question: And the “Difference in protein level: UQCRB” value [1]?
Answer: The value was 0.52.

Question: And the “Difference in protein level: VDAC3” value [1]?
Answer: Its value is 0.52.

Question: What about the IC50 [2] of the same compound?
Answer: The IC50 was 14 ± 3 nM.

Question: What about the inhibition at 14 µM (recombinant human IDO1) of the same compound?
Answer: The inhibition at 14 µM was 40 ± 7%.
